In patent US10160762B2, “6-alkyl dihydropyrazolopyrimidinone compounds as PDE2 inhibitors” (Merck Sharp & Dohme Corp., priority 2015, dated 2018):

Target: T1, Rhesus PDE2A3 (Macaca mulatta, UniProt B3VTJ2)
T1 construct: made in house; host or cells: AD293 cells, transient transfection; supernatant of sonicated lysate
T1 sequence (B3VTJ2 1-941): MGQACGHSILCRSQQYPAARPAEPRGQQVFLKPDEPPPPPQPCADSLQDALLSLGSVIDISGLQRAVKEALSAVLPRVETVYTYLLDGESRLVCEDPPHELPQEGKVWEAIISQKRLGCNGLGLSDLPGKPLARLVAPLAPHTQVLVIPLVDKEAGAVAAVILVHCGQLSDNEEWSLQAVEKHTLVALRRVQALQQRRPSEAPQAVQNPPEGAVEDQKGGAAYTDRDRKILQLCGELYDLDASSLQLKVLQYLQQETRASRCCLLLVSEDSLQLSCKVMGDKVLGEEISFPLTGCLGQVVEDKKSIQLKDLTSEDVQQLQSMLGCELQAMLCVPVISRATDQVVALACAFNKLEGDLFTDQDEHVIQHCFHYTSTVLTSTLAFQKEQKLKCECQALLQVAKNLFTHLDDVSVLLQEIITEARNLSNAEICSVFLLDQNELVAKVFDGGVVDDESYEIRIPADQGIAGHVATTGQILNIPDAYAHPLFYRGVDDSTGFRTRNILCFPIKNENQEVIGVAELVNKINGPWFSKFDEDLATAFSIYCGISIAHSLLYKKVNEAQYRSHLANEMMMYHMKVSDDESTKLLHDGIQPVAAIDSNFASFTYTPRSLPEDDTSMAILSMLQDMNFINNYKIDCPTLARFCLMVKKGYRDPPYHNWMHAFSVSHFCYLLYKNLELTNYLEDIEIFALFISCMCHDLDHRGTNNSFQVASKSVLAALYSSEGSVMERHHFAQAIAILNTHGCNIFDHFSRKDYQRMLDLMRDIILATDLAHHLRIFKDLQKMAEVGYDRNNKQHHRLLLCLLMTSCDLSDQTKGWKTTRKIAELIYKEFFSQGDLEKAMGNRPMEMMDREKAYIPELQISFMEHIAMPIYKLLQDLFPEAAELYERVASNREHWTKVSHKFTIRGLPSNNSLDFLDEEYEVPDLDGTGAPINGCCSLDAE
Experiment: PDE2 fluorescence polarization (IMAP FP) inhibition assay, rhesus PDE2A3
Assay type: biochemical, rhesus macaque
Settings: Lab A; read-out: Rhesus PDE2 Ki (nM) Lab A
Procedure: The activity of the compounds in accordance with the present invention as PDE2 inhibitors may be readily determined using a fluorescence polarization (FP) methodology (Huang, W., et al., J. Biomol Screen, 2002, 7: 215).
The PDE2 inhibitory activity of the compounds of the present invention was determined in accordance with the following experimental method. Rhesus PDE2A3 was amplified from rhesus macaque brain cDNA (Biochain Institute, Hayward, Calif.) using primers based on human PDE2A sequence (accession NM_002599.3) where the forward primer containing a Kozak consensus was 5′-[…]-3′ and the reverse primer was 5′-[…]-3′. Amplification with Easy-A High-Fidelity PCR cloning enzyme (Stratagene, La Jolla, Calif.) was 95° C. for 2 minutes followed by thirty three cycles of 95° C. for 40 seconds, 52° C. for 30 seconds, and 72° C. for 2 minutes 48 seconds. Final extension was 72° C. for 7 minutes. The PCR product was TA cloned into pcDNA3.3-TOPO (Invitrogen, Carlsbad, Calif.) according to standard protocol. A consensus sequence was developed from multiple clones and then deposited into GenBank (EU812167). AD293 cells (Stratagene, La Jolla, Calif.) with 70-80% confluency were transiently transfected with rhesus PDE2A3/pcDNA3.3-TOPO using Lipofectamine 2000 according to manufacturer specifications (Invitrogen, Carlsbad, Calif.). Cells were harvested 48 hours post-transfection and lysed by sonication (setting 3, 10×5 sec pulses) in a buffer containing 20 mM HEPES pH 7.4, 1 mM EDTA and Complete Protease Inhibitor Cocktail Tablets (Roche, Indianapolis, Ind.). Lysate was collected by centrifugation at 75,000×g for 20 minutes at 4° C. and supernatant utilized for evaluation of PDE2 activity. The fluorescence polarization assay for cyclic nucleotide phosphodiesterases was performed using an IMAP® FP kit supplied by Molecular Devices, Sunnyvale, Calif. (product #R8139). […] Assays were performed at room temperature in 384-well microtiter plates with an incubation volume of 20.2 μL. Solutions of test compounds were prepared in DMSO and serially diluted with DMSO to yield 8 μL of each of 10 solutions differing by 3-fold in concentration, at 32 serial dilutions per plate. […] 0% of inhibition is determined by using DMSO (1% final concentrations).
A Labcyte Echo 555 (Labcyte, Sunnyvale, Calif.) is used to dispense 200 nL from each well of the titration plate to the 384 well assay plate. Ten microliters of a solution of enzyme (1/2000 final dilution from aliquots; sufficient to produce 20% substrate conversion) was added to the assay plate. Next 10 uL of a separate solution of the substrate FAM-labeled cAMP (50 nM final concentration product # R7506 from Molecular Devices) and the activator cGMP (1 uM final concentration), prepared in the assay buffer (10 mM Tris HCl, pH 7.2, 10 mM MgCl2, 0.05% NaN3 0.01% Tween-20, and 1 mM DTT) was added to the assay plate and shaken to mix. The reaction is allowed to proceed at room temperature for 60 minutes. A binding solution is then made from the kit components, comprised of 80% Solution A, 20% Solution B and binding reagent at a volume of 1/600 the total binding solution. The enzymatic reaction is stopped by addition of 60 μL of the binding solution to each well of the assay plates and the plates are sealed and shaken for 30 seconds. The plate was incubated at room temperature for at least one hour prior to determining the fluorescence polarization (FP). The parallel and perpendicular fluorescence of each well of the plate was measured using a Tecan Genios Pro plate reader (Tecan, Switzerland) or Perkin Elmer EnVision™ plate reader (Waltham, Mass.). Fluorescence polarization (mP) was calculated from the parallel (S) and perpendicular (P) fluorescence of each sample well and the analogous values for the median control well, containing only substrate (So and Po), using the following equation: Polarization(mP)=1000*(S/So−P/Po)/(S/So+P/Po).

Ki	SMILES
> 1000 nM	Cc1nc2c(c(C)nn2CC(=O)Nc2ccc(C(F)(F)F)cc2)c(=O)[nH]1 [Example 337, 2-(3,6-Dimethyl-4-oxo-4,5-dihydro-1H-pyrazolo[3,4-d]pyrimidin-1-yl)-N-(4-(trifluoromethyl)phenyl)acetamide]
> 1000 nM	Cc1nc2c(c(C)nn2CC(C)(O)c2ccc(C(F)(F)F)cc2)c(=O)[nH]1 (stereo not drawn) [Example 336, 1-(2-Hydroxy-2-(4-(trifluormethyl)phenyl)propyl)-3,6-dimethyl-1H-pyrazolo[4-d]pyrimidin-4(5H)-one]
292 nM	Cc1nc2c(c(C)nn2C(CCCc2ccccc2)c2sc(C)nc2C)c(=O)[nH]1 (stereo not drawn) [Example 339, 1-[1-(2,4-dimethyl-1,3-thiazol-5-yl)-4-phenylbutyl]-3,6-dimethyl-1,5-dihydro-4H-pyrazolo[3,4-d]pyrimidin-4-one]

Same assay, conditions: Lab B; read-out: Rhesus PDE2 Ki (nM) Lab B

Ki	SMILES
245 nM	Cc1nc2c(c(CCO)nn2C(C)c2ccc(C(F)(F)F)cc2)c(=O)[nH]1 (single isomer, unassigned) [Example 249]
8880 nM	Cc1nc2c(c(C)nn2C(C)C(O)c2ccc(C(F)(F)F)cc2)c(=O)[nH]1 (stereo not drawn) [Example 332, 1-(1-Hydroxy-1-(4-(trifluoromethyl)phenyl)propan-2-yl)-3,6-dimethyl-1H-pyrazolo[3,4-d]pyrimidin-4(5H)-one]
1080 nM	Cc1nc2c(c(CC(F)(F)F)nn2C(c2ccc(C(F)(F)F)cc2)C2(C)CC2)c(=O)[nH]1 (single isomer, unassigned) [Example 58, (R)- or (S)-6-Methyl-1-((1-methylcyclopropyl)(4-(trifluoromethyl)phenyl)methyl)-3-(2,2,2-trifluoroethyl)-1H-pyrazolo[3,4-d]pyrimidin-4(5H)-one]
210 nM	Cc1nc2c(c(CF)nn2C(C)c2ccc(S(F)(F)(F)(F)F)cc2)c(=O)[nH]1 (single isomer, unassigned) [Example 199]
149 nM	Cc1nc2c(c(CF)nn2C(c2ccc(C(F)(F)F)cc2)C2(C)CC2)c(=O)[nH]1 (single isomer, unassigned) [Example 208, (R)- or (S)-3-(Fluoromethyl)-6-methyl-1-((1-methylcyclopropyl)(4-(trifluoromethyl)phenyl)methyl)-1H-pyrazolo[3,4-d]pyrimidin-4(5H)-one]
283 nM	CC(=O)OCc1nn(C(C)c2ccc(C(F)(F)F)cc2)c2nc(C)[nH]c(=O)c12 (stereo not drawn) [Example 319, (6-Methyl-4-oxo-1-(1-(4-(trifluoromethyl)phenyl)ethyl)-4,5-dihydro-1H-pyrazolo[3,4-d]pyrimidin-3-yl)methyl acetate]
473 nM	COCc1nc2c(c(CO)nn2C(C)c2ccc(C(F)(F)F)cc2)c(=O)[nH]1 (single isomer, unassigned) [Example 292]
7660 nM	Cc1nc2c(c(C)nn2CC(C)(O)c2ccc(C(F)(F)F)cc2)c(=O)[nH]1 (stereo not drawn) [Example 336, 1-(2-Hydroxy-2-(4-(trifluormethyl)phenyl)propyl)-3,6-dimethyl-1H-pyrazolo[4-d]pyrimidin-4(5H)-one]
1440 nM	Cc1nc2c(c(C)nn2C(C)CN(C)c2ccc(C(F)(F)F)cc2)c(=O)[nH]1 (stereo not drawn) [Example 331, 3,6-Dimethyl-1-(1-(methyl(4-(trifluoromethyl)phenyl)amino)propan-2-yl)-1H-pyrazolo[3,4-d]pyrimidin-4(5H)-one]
419 nM	Cc1nc2c(c(C(F)F)nn2C(C)c2ccc(C(F)(F)F)cc2)c(=O)[nH]1 (single isomer, unassigned) [Example 175]
6020 nM	Cc1nc2c(c(CC(F)(F)F)nn2C(c2ccc(C(F)(F)F)cc2)C(C)(C)C)c(=O)[nH]1 (single isomer, unassigned) [Example 56, (R)- or (S)-1-(2,2-Dimethyl-1-(4-(trifluoromethyl)phenyl)propyl)-6-methyl-3-(2,2,2-trifluoroethyl)-1H-pyrazolo[3,4-d]pyrimidin-4(5H)-one]
> 2970 nM	Cc1nc2c(c(CCN)nn2C(C)c2ccc(C(F)(F)F)cc2)c(=O)[nH]1 (stereo not drawn) [Example 282, 3-(2-Aminoethyl)-6-methyl-1-(1-(4-(trifluoromethyl)phenyl)ethyl)-1H-pyrazolo[3,4-d]pyrimidin-4(5H)-one]
